Assay results from ChEMBL document CHEMBL4706583, “2-Anilinoquinoline based arylamides as broad spectrum anticancer agents with B-RAF/C-RAF kinase inhibitory effects: Design, synthesis, in vitro cell-based and oncogenic kinase assessments” (Eur J Med Chem, 2020).

Assays:
RPMI-8226 = assay: Growth inhibition of human RPMI-8226 cells measured after 48 hrs by SRB assay; type: functional
HOP-92 = assay: Growth inhibition of human HOP-92 cells measured after 48 hrs by SRB assay; type: functional
HCT-116 = assay: Growth inhibition of human HCT-116 cells measured after 48 hrs by SRB assay; type: functional
SF-295 = assay: Growth inhibition of human SF-295 cells measured after 48 hrs by SRB assay; type: functional
SK-MEL-5 = assay: Growth inhibition of human SK-MEL-5 cells measured after 48 hrs by SRB assay; type: functional
OVCAR-4 = assay: Growth inhibition of human OVCAR-4 cells measured after 48 hrs by SRB assay; type: functional
A498 = assay: Growth inhibition of human A498 cells measured after 48 hrs by SRB assay; type: functional
PC-3 = assay: Growth inhibition of human PC-3 cells measured after 48 hrs by SRB assay; type: functional
BT-549 = assay: Growth inhibition of human BT-549 cells measured after 48 hrs by SRB assay; type: functional
[1] = target: Serine/threonine-protein kinase B-raf (Homo sapiens, UniProt P15056); assay: Inhibition of human BRAF at 10 uM using MEK1 (K97R) as substrate in presence of [gamma-33P]ATP by scintillation counting method relative to control
Chain of Serine/threonine-protein kinase B-raf (P15056 whole entry): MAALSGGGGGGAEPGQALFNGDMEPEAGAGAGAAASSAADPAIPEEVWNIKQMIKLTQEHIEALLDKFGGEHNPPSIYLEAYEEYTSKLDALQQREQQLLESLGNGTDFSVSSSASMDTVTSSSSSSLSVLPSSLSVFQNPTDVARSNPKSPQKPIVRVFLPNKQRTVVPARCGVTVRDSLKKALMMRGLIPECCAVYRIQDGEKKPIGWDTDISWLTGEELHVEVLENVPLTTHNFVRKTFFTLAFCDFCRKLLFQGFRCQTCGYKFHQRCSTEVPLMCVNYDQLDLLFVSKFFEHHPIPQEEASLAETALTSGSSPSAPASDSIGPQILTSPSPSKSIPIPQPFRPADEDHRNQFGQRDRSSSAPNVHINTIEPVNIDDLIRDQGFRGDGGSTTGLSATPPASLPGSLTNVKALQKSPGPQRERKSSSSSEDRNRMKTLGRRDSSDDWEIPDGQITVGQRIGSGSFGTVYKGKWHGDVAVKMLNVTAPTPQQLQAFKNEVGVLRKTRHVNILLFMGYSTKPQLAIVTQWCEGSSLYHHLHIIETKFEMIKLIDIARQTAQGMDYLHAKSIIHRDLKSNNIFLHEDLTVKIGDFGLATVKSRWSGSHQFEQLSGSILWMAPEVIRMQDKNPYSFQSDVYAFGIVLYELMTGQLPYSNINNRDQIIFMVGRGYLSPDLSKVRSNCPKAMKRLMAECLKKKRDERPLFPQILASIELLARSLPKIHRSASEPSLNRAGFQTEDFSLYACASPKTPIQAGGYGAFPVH

[2] = system: Serine/threonine-protein kinase B-raf (Homo sapiens), P15056 [V600E]; assay: Inhibition of human BRAF V600E mutant at 10 uM using MEK1 (K97R) as substrate in presence of [gamma-33P]ATP by scintillation counting method relative to control
Chain of Serine/threonine-protein kinase B-raf (Homo sapiens), P15056 [V600E] (P15056 whole entry V600E): as the sequence (P15056 whole entry) above, with V600E counted along it

[3] = target: RAF proto-oncogene serine/threonine-protein kinase (Homo sapiens, UniProt P04049); assay: Inhibition of human CRAF at 10 uM using MEK1 (K97R) as substrate in presence of [gamma-33P]ATP by scintillation counting method relative to control
Chain of RAF proto-oncogene serine/threonine-protein kinase (P04049 whole entry): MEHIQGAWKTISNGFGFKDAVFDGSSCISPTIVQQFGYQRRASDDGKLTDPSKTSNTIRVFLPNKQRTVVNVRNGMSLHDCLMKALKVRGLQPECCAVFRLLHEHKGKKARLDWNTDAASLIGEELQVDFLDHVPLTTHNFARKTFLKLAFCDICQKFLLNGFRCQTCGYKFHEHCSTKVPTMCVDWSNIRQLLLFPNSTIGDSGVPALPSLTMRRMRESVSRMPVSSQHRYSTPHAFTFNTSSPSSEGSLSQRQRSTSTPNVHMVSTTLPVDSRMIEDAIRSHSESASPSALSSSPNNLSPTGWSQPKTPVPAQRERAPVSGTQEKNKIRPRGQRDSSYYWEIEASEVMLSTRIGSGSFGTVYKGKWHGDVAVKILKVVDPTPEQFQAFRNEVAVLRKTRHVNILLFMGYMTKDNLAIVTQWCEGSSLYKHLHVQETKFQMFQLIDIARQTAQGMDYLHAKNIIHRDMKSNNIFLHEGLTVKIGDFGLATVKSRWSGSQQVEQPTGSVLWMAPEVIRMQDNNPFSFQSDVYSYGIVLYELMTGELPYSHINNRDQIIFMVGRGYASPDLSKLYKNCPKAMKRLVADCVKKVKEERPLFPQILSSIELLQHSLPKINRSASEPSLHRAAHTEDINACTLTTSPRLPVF

CCRF-CEM = assay: Growth inhibition of human CCRF-CEM cells measured after 48 hrs by SRB assay; type: functional
HL-60(TB) = assay: Growth inhibition of human HL-60(TB) cells measured after 48 hrs by SRB assay; type: functional
K562 = assay: Growth inhibition of human K562 cells measured after 48 hrs by SRB assay; type: functional
MOLT-4 = assay: Growth inhibition of human MOLT-4 cells measured after 48 hrs by SRB assay; type: functional
SR = assay: Growth inhibition of human SR cells measured after 48 hrs by SRB assay; type: functional
A549 = assay: Growth inhibition of human A549 cells measured after 48 hrs by SRB assay; type: functional
EKVX = assay: Growth inhibition of human EKVX cells measured after 48 hrs by SRB assay; type: functional
HOP-62 = assay: Growth inhibition of human HOP-62 cells measured after 48 hrs by SRB assay; type: functional
NCI-H226 = assay: Growth inhibition of human NCI-H226 cells measured after 48 hrs by SRB assay; type: functional
NCI-H23 = assay: Growth inhibition of human NCI-H23 cells measured after 48 hrs by SRB assay; type: functional
NCI-H322M = assay: Growth inhibition of human NCI-H322M cells measured after 48 hrs by SRB assay; type: functional
NCI-H460 = assay: Growth inhibition of human NCI-H460 cells measured after 48 hrs by SRB assay; type: functional
NCI-H522 = assay: Growth inhibition of human NCI-H522 cells measured after 48 hrs by SRB assay; type: functional
COLO 205 = assay: Growth inhibition of human COLO 205 cells measured after 48 hrs by SRB assay; type: functional
HCC 2998 = assay: Growth inhibition of human HCC 2998 cells measured after 48 hrs by SRB assay; type: functional
HCT-15 = assay: Growth inhibition of human HCT-15 cells measured after 48 hrs by SRB assay; type: functional
HT-29 = assay: Growth inhibition of human HT-29 cells measured after 48 hrs by SRB assay; type: functional
KM12 = assay: Growth inhibition of human KM12 cells measured after 48 hrs by SRB assay; type: functional
SW-620 = assay: Growth inhibition of human SW-620 cells measured after 48 hrs by SRB assay; type: functional
SF-539 = assay: Growth inhibition of human SF-539 cells measured after 48 hrs by SRB assay; type: functional
SNB-19 = assay: Growth inhibition of human SNB-19 cells measured after 48 hrs by SRB assay; type: functional
SNB-75 = assay: Growth inhibition of human SNB-75 cells measured after 48 hrs by SRB assay; type: functional
U-251 = assay: Growth inhibition of human U-251 cells measured after 48 hrs by SRB assay; type: functional
LOX IMVI = assay: Growth inhibition of human LOX IMVI cells measured after 48 hrs by SRB assay; type: functional
Malme-3M = assay: Growth inhibition of human Malme-3M cells measured after 48 hrs by SRB assay; type: functional
M14 = assay: Growth inhibition of human M14 cells measured after 48 hrs by SRB assay; type: functional
MDA-MB-435 = assay: Growth inhibition of human MDA-MB-435 cells measured after 48 hrs by SRB assay; type: functional
SK-MEL-2 = assay: Growth inhibition of human SK-MEL-2 cells measured after 48 hrs by SRB assay; type: functional
SK-MEL-28 = assay: Growth inhibition of human SK-MEL-28 cells measured after 48 hrs by SRB assay; type: functional
UACC-257 = assay: Growth inhibition of human UACC-257 cells measured after 48 hrs by SRB assay; type: functional
UACC-62 = assay: Growth inhibition of human UACC-62 cells measured after 48 hrs by SRB assay; type: functional
IGROV-1 = assay: Growth inhibition of human IGROV-1 cells measured after 48 hrs by SRB assay; type: functional
OVCAR-3 = assay: Growth inhibition of human OVCAR-3 cells measured after 48 hrs by SRB assay; type: functional
OVCAR-5 = assay: Growth inhibition of human OVCAR-5 cells measured after 48 hrs by SRB assay; type: functional
OVCAR-8 = assay: Growth inhibition of human OVCAR-8 cells measured after 48 hrs by SRB assay; type: functional
NCI/ADR-RES = assay: Growth inhibition of human NCI/ADR-RES cells measured after 48 hrs by SRB assay; type: functional
SK-OV-3 = assay: Growth inhibition of human SK-OV-3 cells measured after 48 hrs by SRB assay; type: functional
786-0 = assay: Growth inhibition of human 786-0 cells measured after 48 hrs by SRB assay; type: functional
ACHN = assay: Growth inhibition of human ACHN cells measured after 48 hrs by SRB assay; type: functional
CAKI-1 = assay: Growth inhibition of human CAKI-1 cells measured after 48 hrs by SRB assay; type: functional
RXF 393 = assay: Growth inhibition of human RXF 393 cells measured after 48 hrs by SRB assay; type: functional
SN12C = assay: Growth inhibition of human SN12C cells measured after 48 hrs by SRB assay; type: functional
TK-10 = assay: Growth inhibition of human TK-10 cells measured after 48 hrs by SRB assay; type: functional
UO-31 = assay: Growth inhibition of human UO-31 cells measured after 48 hrs by SRB assay; type: functional
DU-145 = assay: Growth inhibition of human DU-145 cells measured after 48 hrs by SRB assay; type: functional
MCF7 = assay: Growth inhibition of human MCF7 cells measured after 48 hrs by SRB assay; type: functional
MDA-MB-231 = assay: Growth inhibition of human MDA-MB-231 cells measured after 48 hrs by SRB assay; type: functional
Hs-578T = assay: Growth inhibition of human Hs-578T cells measured after 48 hrs by SRB assay; type: functional
T47D = assay: Growth inhibition of human T47D cells measured after 48 hrs by SRB assay; type: functional

Compound: COc1cc2cc(Oc3ccc(NC(=O)c4cc(C(F)(F)F)cc(C(F)(F)F)c4)cc3)c(C)nc2cc1OC
- GI50 (RPMI-8226): 1.57 µM
- GI50 (HOP-92): 1.82 µM
- GI50 (HCT-116): 1.56 µM
- GI50 (SF-295): 1.64 µM
- GI50 (SK-MEL-5): 2.76 µM
- GI50 (OVCAR-4): 4.53 µM
- GI50 (A498): 1.13 µM
- GI50 (PC-3): 1.66 µM
- GI50 (BT-549): 3.02 µM
- inhibition [1]: < 47%
- inhibition [2]: < 47%
- inhibition [3]: 76.7%

Compound: Cc1ccc(NC(=O)c2ccc(CN3CCN(C)CC3)cc2)cc1Nc1nccc(-c2cccnc2)n1 [IMATINIB]
- GI50 (CCRF-CEM): 17 µM
- GI50 (HL-60(TB)): 13.5 µM
- GI50 (K562): 0.02 µM
- GI50 (MOLT-4): 5.13 µM
- GI50 (RPMI-8226): 6.05 µM
- GI50 (SR): 7.14 µM
- GI50 (A549): 24.5 µM
- GI50 (EKVX): 26.2 µM
- GI50 (HOP-62): 21.5 µM
- GI50 (HOP-92): 13.3 µM
- GI50 (NCI-H226): 18.1 µM
- GI50 (NCI-H23): 15 µM
- GI50 (NCI-H322M): 22.8 µM
- GI50 (NCI-H460): 16.2 µM
- GI50 (NCI-H522): 16.4 µM
- GI50 (COLO 205): 17.6 µM
- GI50 (HCC 2998): 21.2 µM
- GI50 (HCT-116): 12.6 µM
- GI50 (HCT-15): 19.9 µM
- GI50 (HT-29): 3.97 µM
- GI50 (KM12): 18.8 µM
- GI50 (SW-620): 23.4 µM
- GI50 (SF-295): 19.8 µM
- GI50 (SF-539): 10.6 µM
- GI50 (SNB-19): 38.6 µM
- GI50 (SNB-75): 20.3 µM
- GI50 (U-251): 18 µM
- GI50 (LOX IMVI): 18.1 µM
- GI50 (Malme-3M): 16.3 µM
- GI50 (M14): 19.3 µM
- GI50 (MDA-MB-435): 17.9 µM
- GI50 (SK-MEL-2): 25 µM
- GI50 (SK-MEL-28): 14.6 µM
- GI50 (SK-MEL-5): 12.1 µM
- GI50 (UACC-257): 21.1 µM
- GI50 (UACC-62): 19 µM
- GI50 (IGROV-1): 21.2 µM
- GI50 (OVCAR-3): 34.2 µM
- GI50 (OVCAR-4): 20 µM
- GI50 (OVCAR-5): 0.58 µM
- GI50 (OVCAR-8): 27.7 µM
- GI50 (NCI/ADR-RES): 23 µM
- GI50 (SK-OV-3): 28.9 µM
- GI50 (786-0): 16 µM
- GI50 (A498): 22 µM
- GI50 (ACHN): 25.2 µM
- GI50 (CAKI-1): 34 µM
- GI50 (RXF 393): 15.1 µM
- GI50 (SN12C): 33.2 µM
- GI50 (TK-10): 26.9 µM
- GI50 (UO-31): 22.3 µM
- GI50 (PC-3): 21.4 µM
- GI50 (DU-145): 18.8 µM
- GI50 (MCF7): 18.2 µM
- GI50 (MDA-MB-231): 18.7 µM
- GI50 (Hs-578T): 14.6 µM
- GI50 (BT-549): 16.1 µM
- GI50 (T47D): 19.9 µM
